Data: patent US20020151678A1, “Prophylaxis and therapy of acquired immunodeficiency syndrome” (Board of Regents, The University of Texas System., priority 1987, published 2002)
“Also recorded” adds a separate entry of the source.

Assays:
[1] = system: native HIV envelope protein gp160; conditions: disulfide (di-Cys) polymeric form
Text: FIG. 6 contains two panels of graphs that illustrate B6C3 F1 mouse PLN cell proliferation by ^3H-TdR incorporation as described before using varying concentrations of peptide multimer and gp120 as antigens. […] PPD and unrelated peptide were used as controls. A further discussion relating to FIGS. 6-8 is found hereinafter.
The cells were harvested onto filter strips and ^3H-TdR incorporation was monitored.
T cell proliferation measured by ^3H-TdR incorporation, was also similarly assayed as a function of the T cell antigen concentration, using various amounts of native gp120 or gp160 as one control, and PPD as another control. PLN from B6C3 F1 mice were used in these studies.

BALB/c mice = test: ELISA for anti-peptide antibody response in sera of immunized BALB/c mice; format: in vivo; conditions: high molecular weight (multimer) forms

Sequence | T cell response directed against the corresponding peptide and native HIV envelope protein gp160 [1] | anti-peptide antibody response (in words) (BALB/c mice)
VYYGVPVWKEA [Peptide 104, gp160 CR-1, residues 45-55] | strong T cell response | very low to negligible amounts of anti-peptide antibodies; also recorded: do not stimulate anti-peptide antibody production
FLGFLGAAGSTMGAASLTLTVQANQ [Peptide 63, gp160 conserved region 5, residues 519-543; di-Cys polymeric form] | strong T cell response | very low to negligible amounts of anti-peptide antibodies; also recorded: do not stimulate anti-peptide antibody production
LWDQSLKPCVKLT [Peptide 111, gp160 CR-1, residues 118-131] | – | very low to negligible amounts of anti-peptide antibodies
SVITQACSKVSFE [Peptide 113, gp160 CR-2, residues 204-216] | strong T cell response | very low to negligible amounts of anti-peptide antibodies; also recorded: do not stimulate anti-peptide antibody production
YLRDQQLLGIWGC [Peptide 61, gp160 conserved region 5, residues 586-598; number denotes the di-Cys polymeric form] | strong T cell response | very low to negligible amounts of anti-peptide antibodies; also recorded: do not stimulate anti-peptide antibody production
GTGPCTNVSTVQC [Peptide 116, gp160 CR-2, residues 240-252] | – | very low to negligible amounts of anti-peptide antibodies
